Earlier results on one compound are cited in patent publication US20080081052A1, “Topical compositions containing solubilized allantoin and related methods” (priority 2006, published 2008).

The conditions of this series: expressed in g/100 g water @ 25 degree C; no solubilization enhancer.

Take `NC(=O)NC1NC(=O)NC1=O` (stereo not shown) [allantoin, (2,5-dioxo-4-imidazolidinyl) urea]: the “solubility of allantoin in water” value is on record as 0.45%.
